These results are taken from EP4740948A1 (Dong Wha Pharm. Co., Ltd., priority 2023, dated 2025).

One may read the inhibition as the share of the control response that was lost under treatment.

The target in one assay is EZH1 (Homo sapiens, UniProt Q92800). The assay is described as follows: AlphaLISA enzyme activity inhibition, EZH1. It is filed as biochemical. To be noted: for inhibition at 0.005 µM: 5nM test substance. A digest of the protocol:
(§1)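 EZH1 or EZH2 was mixed with compound at 5 nM or 10 nM final in 20 mM Tris pH 8.0, 0.1% BSA, 0.5 mM DTT, then histone H3 peptide and SAM were added. After 2 h reaction, AlphaLISA acceptor and donor beads detected methylation; inhibition rate was calculated against DMSO control.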
A general note: Bead proximity is the source of the signal in Alpha formats.

The next assay concerns the target EZH2 (Homo sapiens, UniProt Q15910). The assay is described as follows: AlphaLISA enzyme activity inhibition, EZH2. It counts as biochemical. In a few lines:
as §1

The test system of the next assay is Lovo cells. The assay is described as follows: Cancer cell proliferation inhibition (Cell Counting Kit-8), colorectal cancer cell line. It counts as cell-based. To be noted: 1000 nM, cultured seven to 11 days; for inhibition at 1 µM: Homo sapiens, LoVo, 264 h, read-out: % inhibition rate LoVo. A digest of the protocol:
(§2)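 Single-concentration growth test: compound at 1000 nM was applied to cells seeded at 100 to 1,000 per well and cultured seven to 11 days. Proliferation was then quantified with Cell Counting Kit-8, and percent inhibition was taken relative to control wells.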
On the technique in general: Tetrazolium dyes change colour on reduction, which living cells bring about.

The subject of another assay is G401 cells. The assay is described as follows: Cancer cell proliferation inhibition (Cell Counting Kit-8), rhabdoid tumor cell line. It is filed as cell-based. Conditions: 1000 nM, cultured seven to 11 days; for inhibition at 1 µM: Homo sapiens, G-401, 264 h, read-out: % inhibition rate G401. A digest of the protocol: (§3)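 Cells grown in RPMI1640, McCoy's 5a, L-15 or DMEM with 10% FBS, seeded at 100 to 1,000 cells/well and treated with test substance at 1000 nM for 7 to 11 days. Viability read by CCK-8; % inhibition = {1−(test/control)} × 100.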

A further assay has as its system MKN-45 cells. The assay is described as follows: Cancer cell proliferation inhibition (Cell Counting Kit-8), gastric cancer cell line. It counts as cell-based. To be noted: 1000 nM, cultured seven to 11 days; for inhibition at 1 µM: Homo sapiens, MKN-45, 264 h, read-out: % inhibition rate MKN -45. In a few lines:
as §3

The next assay relates to SW-13 cells. The assay is described as follows: Cancer cell proliferation inhibition (Cell Counting Kit-8), adrenal cancer cell line. It counts as cell-based. Conditions: 1000 nM, cultured seven to 11 days; for inhibition at 1 µM: Homo sapiens, SW13, 264 h, read-out: % inhibition rate SW-13. In a few lines:
as §2

The next assay deals with MIA-PaCa-2 cells. The assay is described as follows: Cancer cell proliferation inhibition (Cell Counting Kit-8), pancreatic cancer cell line. To be noted: 1000 nM, cultured seven to 11 days; for inhibition at 1 µM: Homo sapiens, MIA PaCa-2, 264 h, read-out: % inhibition rate MIA-Paca2. It counts as cell-based. In a few lines: as §2
The test system of another assay is NCI-H1299 cells. The assay is described as follows: Cancer cell proliferation inhibition (Cell Counting Kit-8), lung cancer cell line. It is filed as cell-based. Conditions: 1000 nM, cultured seven to 11 days; for inhibition at 1 µM: Homo sapiens, NCI-H1299, 264 h, read-out: % inhibition rate NCI-H129 9. A digest of the protocol:
as §2

Sequence of EZH1 (Q92800 whole entry, species assumed): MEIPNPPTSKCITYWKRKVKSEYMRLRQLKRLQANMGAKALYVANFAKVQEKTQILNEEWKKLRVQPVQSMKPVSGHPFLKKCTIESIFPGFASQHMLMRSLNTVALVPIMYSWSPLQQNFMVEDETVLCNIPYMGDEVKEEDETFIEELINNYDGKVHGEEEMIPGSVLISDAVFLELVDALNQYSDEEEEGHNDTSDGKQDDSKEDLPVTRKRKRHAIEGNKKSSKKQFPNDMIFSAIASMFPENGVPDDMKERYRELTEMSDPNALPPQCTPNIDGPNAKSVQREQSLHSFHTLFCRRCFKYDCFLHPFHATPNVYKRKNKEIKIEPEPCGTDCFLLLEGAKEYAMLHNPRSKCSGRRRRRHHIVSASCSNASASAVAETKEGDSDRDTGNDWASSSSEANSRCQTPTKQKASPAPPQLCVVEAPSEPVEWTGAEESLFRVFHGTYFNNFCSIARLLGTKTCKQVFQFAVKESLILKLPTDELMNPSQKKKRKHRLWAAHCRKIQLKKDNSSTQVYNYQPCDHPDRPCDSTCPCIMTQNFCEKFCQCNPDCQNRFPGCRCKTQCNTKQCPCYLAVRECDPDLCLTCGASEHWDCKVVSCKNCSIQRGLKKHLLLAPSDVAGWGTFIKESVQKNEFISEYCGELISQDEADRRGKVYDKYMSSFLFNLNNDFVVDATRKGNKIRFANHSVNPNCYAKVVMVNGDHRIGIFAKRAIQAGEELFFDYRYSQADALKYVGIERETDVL
Sequence of EZH1 (O75530 whole entry partner, species assumed): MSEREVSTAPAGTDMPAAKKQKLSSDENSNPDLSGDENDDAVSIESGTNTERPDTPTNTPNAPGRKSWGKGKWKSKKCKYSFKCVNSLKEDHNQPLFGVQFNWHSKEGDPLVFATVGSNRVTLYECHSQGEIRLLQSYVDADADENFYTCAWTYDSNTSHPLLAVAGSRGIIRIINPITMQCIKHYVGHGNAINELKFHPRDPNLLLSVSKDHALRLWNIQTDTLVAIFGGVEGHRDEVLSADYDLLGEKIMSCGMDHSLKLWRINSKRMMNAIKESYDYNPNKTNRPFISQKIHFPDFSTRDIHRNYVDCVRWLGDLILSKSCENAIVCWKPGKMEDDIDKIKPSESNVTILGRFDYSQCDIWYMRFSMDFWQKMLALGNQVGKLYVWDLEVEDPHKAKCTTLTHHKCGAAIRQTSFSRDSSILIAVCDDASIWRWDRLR
Sequence of EZH1 (Q15022 whole entry partner, species assumed): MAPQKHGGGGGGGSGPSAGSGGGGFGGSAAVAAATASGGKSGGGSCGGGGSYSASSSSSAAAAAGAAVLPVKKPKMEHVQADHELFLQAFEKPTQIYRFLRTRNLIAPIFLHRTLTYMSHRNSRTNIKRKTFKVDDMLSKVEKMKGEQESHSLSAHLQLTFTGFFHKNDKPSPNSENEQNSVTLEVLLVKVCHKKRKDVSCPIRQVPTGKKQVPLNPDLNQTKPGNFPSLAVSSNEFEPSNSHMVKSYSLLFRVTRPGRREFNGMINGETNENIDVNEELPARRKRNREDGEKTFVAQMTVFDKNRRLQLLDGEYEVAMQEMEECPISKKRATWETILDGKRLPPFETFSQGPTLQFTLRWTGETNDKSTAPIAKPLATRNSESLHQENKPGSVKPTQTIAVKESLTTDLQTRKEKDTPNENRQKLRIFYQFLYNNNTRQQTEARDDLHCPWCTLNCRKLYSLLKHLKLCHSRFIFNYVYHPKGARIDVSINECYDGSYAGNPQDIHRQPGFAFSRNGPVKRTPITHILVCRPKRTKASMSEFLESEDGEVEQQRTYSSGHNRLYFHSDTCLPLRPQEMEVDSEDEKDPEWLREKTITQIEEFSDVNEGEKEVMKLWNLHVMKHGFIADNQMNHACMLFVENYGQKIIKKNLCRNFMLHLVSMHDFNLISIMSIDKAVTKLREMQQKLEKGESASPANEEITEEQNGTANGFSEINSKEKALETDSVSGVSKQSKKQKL
Sequence of EZH2 (Q15910 whole entry, species assumed): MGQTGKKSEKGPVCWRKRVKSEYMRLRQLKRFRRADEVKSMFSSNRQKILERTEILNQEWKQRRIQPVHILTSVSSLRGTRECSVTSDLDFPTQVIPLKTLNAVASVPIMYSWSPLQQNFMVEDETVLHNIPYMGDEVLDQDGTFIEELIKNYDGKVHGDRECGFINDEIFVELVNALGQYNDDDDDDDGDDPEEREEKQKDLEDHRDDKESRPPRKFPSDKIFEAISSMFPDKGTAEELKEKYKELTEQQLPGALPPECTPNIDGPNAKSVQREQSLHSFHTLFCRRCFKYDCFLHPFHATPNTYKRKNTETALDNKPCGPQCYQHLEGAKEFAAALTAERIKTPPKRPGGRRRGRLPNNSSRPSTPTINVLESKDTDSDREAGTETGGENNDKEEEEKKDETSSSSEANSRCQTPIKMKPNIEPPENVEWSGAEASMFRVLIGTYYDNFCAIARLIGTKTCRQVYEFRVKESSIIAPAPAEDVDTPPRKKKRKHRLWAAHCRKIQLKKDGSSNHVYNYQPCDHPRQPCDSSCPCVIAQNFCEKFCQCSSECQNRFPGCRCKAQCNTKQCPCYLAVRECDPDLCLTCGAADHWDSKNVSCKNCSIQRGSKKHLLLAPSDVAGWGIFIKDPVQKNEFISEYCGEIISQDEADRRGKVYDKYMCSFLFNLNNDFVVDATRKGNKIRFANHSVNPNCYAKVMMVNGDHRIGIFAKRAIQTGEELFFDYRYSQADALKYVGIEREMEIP
Sequence of EZH2 (O75530 whole entry partner, species assumed): as the sequence (O75530 whole entry partner, species assumed) above
Sequence of EZH2 (Q15022 whole entry partner, species assumed): as the sequence (Q15022 whole entry partner, species assumed) above

For `CSc1cc(C)[nH]c(=O)c1CNC(=O)c1cc(-c2ccc(N3CCOCC3)nc2)c2c(c1C)OC(C)(C1CCN(CC(F)F)CC1)O2` (single isomer, unassigned) [Compound 64, 2-(1-(2,2-difluoroethyl)piperidin-4-yl)-2,4-dimethyl-N-((6-methyl-4-(methylthio)-2-oxo-1,2-dihydropyridin-3-yl)methyl)-7-(6-morpholinopyridin-3-yl)benzo[d][1,3]dioxole-5-carboxamide], the inhibition at 0.005 µM at EZH1 stood at 82.5%; on EZH2 (5nM test substance) it was 99.2%. The inhibition at 0.01 µM against EZH1 (10nM test substance) was 90.5%; on EZH2 (10nM test substance), 99.6%. Moreover, the “% inhibition rate LoVo” value in the assay on Lovo cells (1 µM) was “+++ (+++: ≥70%)”. The “% inhibition rate G401” value in the assay with G401 cells (1 µM) is listed as “+++ (+++: ≥70%)”. The inhibition at 1 µM with MKN-45 cells was 30 to 70%; in the assay on SW-13 cells it was 30 to 70%; in the assay with MIA-PaCa-2 cells, not above 30%; in the assay with NCI-H1299 cells, not above 30%.

Turning to `CSc1cc(C)[nH]c(=O)c1CNC(=O)c1cc(-c2ccc(N3C[C@@H](C)O[C@@H](C)C3)nc2)c2c(c1C)OC(C)([C@H]1CC[C@H](N3CC(OCC(F)F)C3)CC1)O2` (stereo partly drawn) [Compound 104, 2-(trans-4-(3-(2,2-difluoroethoxy)azetidin-1-yl)cyclohexyl)-7-(6-((2S,6R)-2,6-dimethylmorpholino)pyridin-3-yl)-2,4-dimethyl-N-((6-methyl-4-(methylthio)-2-oxo-1,2-dihydropyridin-3-yl)methyl)benzo[d][1,3]dioxole-5-carboxamide], the “Enzyme inhibition % EZH1” value on EZH1 (10nM test substance, 0.01 µM) was 19.9%. Also, the “Enzyme inhibition % EZH2” value at EZH2 (5nM test substance, 0.005 µM) stood at 37.0%; on EZH2 (10nM test substance, 0.01 µM), 82.6%. Further, the “% inhibition rate LoVo” value in the assay with Lovo cells was “+++ (+++: ≥70%)”. For the same compound, in the assay on G401 cells, the “% inhibition rate G401” value is listed as “+++ (+++: ≥70%)”. The “% inhibition rate MKN -45” value with MKN-45 cells (1 µM) is “++ (++: more than 30% and less than 70%)”. In addition, in the assay with SW-13 cells (1 µM), the “% inhibition rate SW-13” value was “++ (++: more than 30% and less than 70%)”. Besides, the “% inhibition rate MIA-Paca2” value with MIA-PaCa-2 cells (1 µM) is “+ (+: ≤30%)”. In addition, the “% inhibition rate NCI-H129 9” value in the assay with NCI-H1299 cells was “+ (+: ≤30%)”.

For the compound `CSc1cc(C)[nH]c(=O)c1CNC(=O)c1cc(-c2ccc(N3C[C@@H](C)O[C@@H](C)C3)nc2)c2c(c1C)OC(C)([C@H]1CC[C@H](N(C)CC(F)(F)F)CC1)O2` (single isomer, unassigned) [Compound 107], at EZH1, the inhibition at 0.005 µM stood at 39.3%. Also, the “Enzyme inhibition % EZH2” value at EZH2 (5nM test substance, 0.005 µM) stood at 41.7%. Besides, the inhibition at 1 µM with Lovo cells was not below 70%; in the assay on MKN-45 cells, not above 30%; in the assay with SW-13 cells, not above 30%; in the assay on MIA-PaCa-2 cells it was not above 30%; in the assay with NCI-H1299 cells it was not above 30%. For the same compound, the “% inhibition rate G401” value in the assay with G401 cells (1 µM) is “+++ (+++: ≥70%)”.

Consider `CSc1cc(C)[nH]c(=O)c1CNC(=O)c1cc(-c2cnc(N3C[C@@H](C)O[C@@H](C)C3)nc2)c2c(c1C)OC(C)(C1CCN(CC(F)(F)F)CC1)O2` (stereo partly drawn) [Compound 38, 7-(2-((2S,6R)-2,6-dimethylmorpholino)pyrimidin-5-yl)-2,4-dimethyl-N-((6-methyl-4-(methylthio)-2-oxo-1,2-dihydropyridin-3-yl)methyl)-2-(1-(2,2,2-trifluoroethyl)piperidin-4-yl)benzo[d][1,3]dioxole-5-carboxamide], for which the inhibition at 0.005 µM against EZH1 was 40.6%; on EZH2 (5nM test substance), 57.4%. Moreover, the inhibition at 1 µM with Lovo cells was not below 70%; in the assay on G401 cells it was not below 70%; in the assay on MKN-45 cells, 30 to 70%; with SW-13 cells it was not above 30%; with MIA-PaCa-2 cells, not above 30%; with NCI-H1299 cells, 30 to 70%.

`CCN1CCC(C2(C)Oc3c(-c4cnc(N(C)CC)nc4)cc(C(=O)NCc4c(SC)cc(C)[nH]c4=O)c(C)c3O2)CC1` (single isomer, unassigned) [Compound 83, 7-(2-(ethyl(methyl)amino)pyrimidin-5-yl)-2-(1-ethylpiperidin-4-yl)-2,4-dimethyl-N-((6-methyl-4-(methylthio)-2-oxo-1,2-dihydropyridin-3-yl)methyl)benzo[d][1,3]dioxole-5-carboxamide]: the inhibition at 0.005 µM against EZH1 was 45.3%; against EZH2 (5nM test substance), 99.2%. For the same compound, the inhibition at 0.01 µM against EZH1 (10nM test substance) turned out to be 78.8%; at EZH2 (10nM test substance), 99.4%. Besides, the “% inhibition rate LoVo” value in the assay with Lovo cells (1 µM) is recorded as “+++ (+++: ≥70%)”. In addition, the “% inhibition rate G401” value in the assay with G401 cells (1 µM) is recorded as “+++ (+++: ≥70%)”. In addition, the inhibition at 1 µM in the assay with MKN-45 cells is not above 30%; in the assay with SW-13 cells, 30 to 70%; in the assay with MIA-PaCa-2 cells, not above 30%; in the assay on NCI-H1299 cells, not above 30%.

Regarding `CSc1cc(C)[nH]c(=O)c1CNC(=O)c1cc(-c2ccc(N3C[C@@H](C)O[C@@H](C)C3)nc2)c2c(c1C)OC(C)([C@H]1CC[C@H](N(C)C3CCCCC3)CC1)O2` (stereo partly drawn) [Compound 114, 2-(trans-4-(cyclohexyl(methyl)amino)cyclohexyl)-7-(6-((2S,6R)-2,6-dimethylmorpholino)pyridin-3-yl)-2,4-dimethyl-N-((6-methyl-4-(methylthio)-2-oxo-1,2-dihydropyridin-3-yl)methyl)benzo[d][1,3]dioxole-5-carboxamide], the figures for the inhibition at 0.005 µM on EZH1 and on EZH2 (5nM test substance) were 28.6% and 45.8%, respectively. Also, the inhibition at 0.01 µM against EZH1 (10nM test substance) stood at 38.2%; at EZH2 (10nM test substance) it was 91.7%. Also, the inhibition at 1 µM in the assay on Lovo cells was not below 70%; in the assay with G401 cells it was not below 70%; in the assay with MKN-45 cells, not above 30%; in the assay on SW-13 cells, 30 to 70%; in the assay with MIA-PaCa-2 cells it was not above 30%; in the assay with NCI-H1299 cells, not above 30%.

For `CCN(C)[C@H]1CC[C@H](C2(C)Oc3c(-c4ccc(N5C[C@@H](C)O[C@@H](C)C5)nc4)cc(C(=O)NCc4c(SC)cc(C)[nH]c4=O)c(C)c3O2)CC1` (stereo partly drawn) [Compound 111, 7-(6-((2S,6R)-2,6-dimethylmorpholino)pyridin-3-yl)-2-(trans-4-(ethyl(methyl)amino)cyclohexyl)-2,4-dimethyl-N-((6-methyl-4-(methylthio)-2-oxo-1,2-dihydropyridin-3-yl)methyl)benzo[d][1,3]dioxole-5-carboxamide], the inhibition at 0.005 µM at EZH1 is 28.1%; against EZH2 (5nM test substance), 86.7%. For the same compound, the inhibition at 0.01 µM against EZH1 (10nM test substance) was found to be 62.1%; against EZH2 (10nM test substance) it was 100%. Further, the inhibition at 1 µM in the assay with Lovo cells was not below 70%; in the assay on G401 cells it was not below 70%; with MKN-45 cells it was not above 30%; in the assay on SW-13 cells, 30 to 70%; with MIA-PaCa-2 cells it was not above 30%; in the assay on NCI-H1299 cells, not above 30%.

On to `CSc1cc(C)[nH]c(=O)c1CNC(=O)c1cc(-c2ccc3c(ccn3C)c2)c2c(c1C)OC(C)([C@H]1CC[C@H](N(C)C)CC1)O2` (relative stereo) [Compound 7, 2-(trans-4-(dimethylamino)cyclohexyl)-2,4-dimethyl-7-(1-methyl-1H-indol-5-yl)-N-((6-methyl-4-(methylthio)-2-oxo-1,2-dihydropyridin-3-yl)methyl)benzo[d][1,3]dioxole-5-carboxamide], for which the inhibition at 0.005 µM amounted to 81.4% at EZH1 and 96% against EZH2 (5nM test substance). For the same compound, the inhibition at 1 µM in the assay on Lovo cells was 30 to 70%; with G401 cells it was 30 to 70%; in the assay on MKN-45 cells, 30 to 70%; with SW-13 cells it was 30 to 70%; with MIA-PaCa-2 cells it was not above 30%; with NCI-H1299 cells, not above 30%.

Take `CCCOCCN(C)[C@H]1CC[C@H](C2(C)Oc3c(-c4ccc(N5C[C@@H](C)O[C@@H](C)C5)nc4)cc(C(=O)NCc4c(SC)cc(C)[nH]c4=O)c(C)c3O2)CC1` (stereo partly drawn) [Compound 30, 7-(6-((2S,6R)-2,6-dimethylmorpholino)pyridin-3-yl)-2,4-dimethyl-2-(trans-4-(methyl(2-propoxyethyl)amino)cyclohexyl)-N-((6-methyl-4-(methylthio)-2-oxo-1,2-dihydropyridin-3-yl)methyl)benzo[d][1,3]dioxole-5-carboxamide]: the inhibition at 0.005 µM against EZH1 turned out to be 80.4%; against EZH2 (5nM test substance), 83.1%. For the same compound, the inhibition at 1 µM was not below 70% with Lovo cells; 30 to 70% in the assay on G401 cells; 30 to 70% in the assay with MKN-45 cells; 30 to 70% in the assay with SW-13 cells; not above 30% in the assay on MIA-PaCa-2 cells; not above 30% with NCI-H1299 cells.
